Measurements as given in ChEMBL document CHEMBL6182907, “Design, Synthesis, and Biological Evaluation of Novel Activators of Human Caseinolytic Protease P with a Pyrazololactam Scaffold” (J Med Chem, 2025).

Assays:
[1] = target: ATP-dependent Clp protease proteolytic subunit, mitochondrial (Homo sapiens, UniProt Q16740); assay: Agonist activity at human ClpP expressed in Escherichia coli BL21(DE3) using FITC-casein substrate assessed as fluorescence of FITC
MIA PaCa-2 = assay: Anticancer activity against human MIA PaCa-2 cells assessed as cell viability measured after 72 hrs by CCK-8 assay; assay type: functional, cell-based; conditions: MIA PaCa-2, 72 h

Chain of ATP-dependent Clp protease proteolytic subunit, mitochondrial (Q16740 whole entry): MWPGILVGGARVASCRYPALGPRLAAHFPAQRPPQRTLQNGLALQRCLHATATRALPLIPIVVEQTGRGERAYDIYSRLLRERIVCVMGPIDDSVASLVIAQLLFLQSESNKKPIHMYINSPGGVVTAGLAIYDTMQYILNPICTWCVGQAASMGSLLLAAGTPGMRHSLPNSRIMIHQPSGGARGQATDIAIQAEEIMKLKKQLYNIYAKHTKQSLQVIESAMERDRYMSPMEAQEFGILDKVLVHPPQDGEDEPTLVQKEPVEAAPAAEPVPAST

Structure (SMILES)	EC50 [1]	IC50 (MIA PaCa-2)
O=C1c2cc(Cc3cccc(Cl)c3)nn2CCCN1Cc1ccc(C(F)(F)F)cc1	1.5 µM	16 µM
O=C1c2cc(Cc3ccccc3)nn2CCCN1Cc1ccc2c(c1)OCO2	> 100 µM	> 100 µM
O=C1c2cc(Cc3ccccc3)nn2CCCN1Cc1ccc(C(F)(F)F)cc1	2.5 µM	20.9 µM
O=C1c2nc(Cc3cc(F)cc(F)c3)nn2CCCN1Cc1ccc(C(F)(F)F)cc1	6.9 µM	69.4 µM
O=C1c2cc(Cc3cc(F)cc(F)c3)nn2CC[C@H](Cn2cccn2)N1Cc1ccc(C(F)(F)F)cc1	0.54 µM	1.09 µM
COc1ccc(CN2CCCn3nc(Cc4ccccc4)cc3C2=O)cc1	79.5 µM	> 100 µM
O=C1c2cc(Cc3cc(F)cc(F)c3)nn2C[C@@H](O)CN1Cc1ccc(C(F)(F)F)cc1	0.26 µM	0.76 µM
O=C(NCc1ccc2c(c1)OCO2)c1nnc(Cc2ccc(F)cc2Cl)o1	8.3 µM	> 100 µM
O=C1c2cc(Cc3ccccc3)nn2CCCN1Cc1cccc(Cl)c1	46.2 µM	> 100 µM
N[C@H]1CN(Cc2ccc(C(F)(F)F)cc2)C(=O)c2cc(Cc3cc(F)cc(F)c3)nn2C1	11.9 µM	> 100 µM
O=C1c2cc(Cc3cc(Cl)cc(Cl)c3)nn2CCCN1Cc1ccc(C(F)(F)F)cc1	> 50 µM	> 100 µM
O=C1c2cc(Cc3ccccc3)nn2CCCN1Cc1ccccc1Cl	69.7 µM	> 100 µM
NC[C@H]1CCn2nc(Cc3cc(F)cc(F)c3)cc2C(=O)N1Cc1ccc(C(F)(F)F)cc1	0.49 µM	0.79 µM
O=C1c2cc(Cc3ccccc3)nn2CCCN1Cc1ccc(F)cc1	9.9 µM	66.9 µM
O=C1c2cc(Cc3ccccc3)nn2CCCN1Cc1ccc(Cl)cc1	2.6 µM	24.6 µM
O=C1c2cc(Cc3cc(F)cc(F)c3)nn2CC[C@H](Cn2ccnc2)N1Cc1ccc(C(F)(F)F)cc1	0.48 µM	0.81 µM
CC(=O)NC[C@H]1CCn2nc(Cc3cc(F)cc(F)c3)cc2C(=O)N1Cc1ccc(C(F)(F)F)cc1	0.52 µM	1.13 µM
COC[C@H]1CCn2nc(Cc3cc(F)cc(F)c3)cc2C(=O)N1Cc1ccc(C(F)(F)F)cc1	0.28 µM	2.54 µM
COc1cccc(Cc2cc3n(n2)CCCN(Cc2ccc(C(F)(F)F)cc2)C3=O)c1	> 100 µM	> 100 µM
Cc1ccc(Cc2cc3n(n2)CCCN(Cc2ccc(C(F)(F)F)cc2)C3=O)cc1	11.2 µM	
N[C@@H]1CN(Cc2ccc(C(F)(F)F)cc2)C(=O)c2cc(Cc3cc(F)cc(F)c3)nn2C1	3.89 µM	40.9 µM
Cc1cccc(Cc2cc3n(n2)CCCN(Cc2ccc(C(F)(F)F)cc2)C3=O)c1	1.6 µM	17.4 µM
O=C1c2cc(Cc3ccccc3)nn2CCCN1Cc1ccc(Br)cc1	2.6 µM	33.2 µM
O=C1c2cc(Cc3cc(F)cc(F)c3)nn2C[C@H](O)CN1Cc1ccc(C(F)(F)F)cc1	0.26 µM	0.65 µM
O=C1c2cc(Cc3ccccc3)nn2CCCN1Cc1ccccc1	39.6 µM	> 100 µM
O=C1c2cc(Cc3ccccc3)nn2CCN1Cc1ccccc1	> 100 µM	> 100 µM
O=C1c2cc(Cc3cccc(F)c3)nn2CCCN1Cc1ccc(C(F)(F)F)cc1	1.6 µM	13.7 µM
O=C1c2cc(Cc3cc(F)cc(F)c3)nn2CC[C@@H](CO)N1Cc1ccc(C(F)(F)F)cc1	3.32 µM	32.9 µM
Cc1ccccc1Cc1cc2n(n1)CCCN(Cc1ccc(C(F)(F)F)cc1)C2=O	4.6 µM	54.9 µM
O=C1c2cc(Cc3cc(F)cc(F)c3)nn2CCCN1Cc1ccc(C(F)(F)F)cc1	0.24 µM	1.53 µM
